Data: US20080311578A1, “System for screening eukaryotic membrane proteins” (Hydra Biosciences, Inc., priority 2004, published 2008)

Columns and labels:
Assay type in all cases: cell-based
[1] = target: T1, rat TrpV1 calcium channel (Rattus norvegicus, UniProt O35433); test: aequorin calcium flux assay in bacterial cells expressing rat TrpV1
T1 construct: expressed in transfected cells; host or cells: E. coli (Rosetta-Gami B (DE3) pLysS, Novagen), dual-T7 expression plasmid, co-expressed with aequorin
Procedure: (§1) 1) 0.5-2 mL of an overnight bacteria (already transformed with a nucleic acid construct or composition encoding a eukaryotic Calcium ion channel and an aequorin marker) culture is innoculated into 25 mL of LB-Amp;
(§2) 2) Bacteria are grown to an OD (optical density) of 0.6;
(§3) 3) 1 mM IPTG added for 2-hour induction;
(§4) 4) Bacteria are spun down, resuspended in ½ volume of nominally divalent free ringers and loaded with coelenterazine;
(§5) 5) Bacteria are rinsed and loaded into 96 well plate ([…]);
(§6) 6) Plate is put in a plate reader, e.g., a Wallac Victor 3;
(§7) 7) Plate is shaken for 2 sec then rested for 5 seconds;
(§8) 8) 10 reads are taken 1 second apart;
(§9) 9) 5 μL of 20 mM CaCl2 is injected;
(§10) 10) 50 reads are taken 1 second apart;
(§11) Note: When a blocker is present, it is added before the plate is put in the reader.
(§12) A further indicator of the functional activity of the ion channel is whether its activity is sensitive to treatment with agonistic or inhibitory agents. FIG. 5 summarizes experiments conducted to address this issue. […] Furthermore, the calcium-flux mediating activity of the channels is inhibited following addition of the calcium channel inhibitor, lanthanum.
(§13) The Trp channel blocker ruthenium red inhibits TrpV1 mediated calcium flux in bacterial cells or CHO cells.

[2] = target: T2, human CatSper 1 calcium channel (Homo sapiens, UniProt Q8NEC5); test: aequorin calcium flux assay in bacterial cells expressing hCatSper1; settings: CatSper1 expressed in bacterial cells, FIG. 5
T2 construct: expressed in transfected cells; host or cells: E. coli (Rosetta-Gami B (DE3) pLysS, Novagen), modified pET dual-T7 vector, co-expressed with apo-aequorin
T2 sequence (Q8NEC5 1-780): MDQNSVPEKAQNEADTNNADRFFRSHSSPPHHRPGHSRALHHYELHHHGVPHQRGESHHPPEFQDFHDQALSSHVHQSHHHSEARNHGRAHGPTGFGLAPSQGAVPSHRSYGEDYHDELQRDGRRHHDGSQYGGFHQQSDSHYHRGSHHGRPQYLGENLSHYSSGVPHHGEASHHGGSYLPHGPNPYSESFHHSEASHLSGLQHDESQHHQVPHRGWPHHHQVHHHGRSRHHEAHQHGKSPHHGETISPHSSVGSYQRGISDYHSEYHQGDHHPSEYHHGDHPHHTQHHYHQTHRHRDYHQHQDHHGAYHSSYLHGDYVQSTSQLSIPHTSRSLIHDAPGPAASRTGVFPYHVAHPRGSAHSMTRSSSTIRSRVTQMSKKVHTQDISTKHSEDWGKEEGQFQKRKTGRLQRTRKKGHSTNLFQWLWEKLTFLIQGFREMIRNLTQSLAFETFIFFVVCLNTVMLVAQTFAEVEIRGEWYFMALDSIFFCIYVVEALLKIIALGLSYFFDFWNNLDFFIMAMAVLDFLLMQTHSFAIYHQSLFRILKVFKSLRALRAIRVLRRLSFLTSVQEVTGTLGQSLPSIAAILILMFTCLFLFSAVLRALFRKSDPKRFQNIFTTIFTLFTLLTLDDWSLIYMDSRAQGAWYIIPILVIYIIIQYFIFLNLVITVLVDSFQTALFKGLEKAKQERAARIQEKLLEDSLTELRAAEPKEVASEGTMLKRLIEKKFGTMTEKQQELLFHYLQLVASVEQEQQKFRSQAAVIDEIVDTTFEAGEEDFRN
Procedure: as §1, §2, §3, §4, §5, §6, §7, §8, §9, §10, §11, §12

rat TrpV1 = target: T3, rat TrpV1 (Rattus norvegicus, UniProt O35433); test: TrpV1 mediated calcium flux in CHO cells; settings: FIG. 8
T3 construct: expressed in transfected cells; host or cells: CHO cells
Excerpt: as §13

T1 sequence (O35433 whole entry): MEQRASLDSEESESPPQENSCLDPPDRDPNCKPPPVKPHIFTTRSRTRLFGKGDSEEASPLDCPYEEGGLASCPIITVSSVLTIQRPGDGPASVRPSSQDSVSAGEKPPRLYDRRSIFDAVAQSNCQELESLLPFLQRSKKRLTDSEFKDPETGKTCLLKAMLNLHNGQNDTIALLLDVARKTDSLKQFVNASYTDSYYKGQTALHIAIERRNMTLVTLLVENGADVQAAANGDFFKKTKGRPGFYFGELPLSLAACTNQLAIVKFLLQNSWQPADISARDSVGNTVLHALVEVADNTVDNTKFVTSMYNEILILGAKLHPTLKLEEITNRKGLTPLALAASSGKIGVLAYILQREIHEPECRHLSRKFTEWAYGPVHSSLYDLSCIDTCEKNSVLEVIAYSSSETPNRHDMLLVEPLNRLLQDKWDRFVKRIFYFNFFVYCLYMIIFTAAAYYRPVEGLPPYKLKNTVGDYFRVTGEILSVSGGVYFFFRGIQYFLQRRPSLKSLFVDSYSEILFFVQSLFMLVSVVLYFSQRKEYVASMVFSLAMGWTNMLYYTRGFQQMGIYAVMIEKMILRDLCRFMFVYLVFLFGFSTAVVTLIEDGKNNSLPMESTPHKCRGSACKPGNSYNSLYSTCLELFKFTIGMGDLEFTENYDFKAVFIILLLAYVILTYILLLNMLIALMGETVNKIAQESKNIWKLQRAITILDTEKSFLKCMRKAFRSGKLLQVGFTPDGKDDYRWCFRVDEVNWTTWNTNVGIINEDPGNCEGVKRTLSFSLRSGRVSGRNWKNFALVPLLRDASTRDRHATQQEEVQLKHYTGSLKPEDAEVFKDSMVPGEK
T3 sequence (O35433 whole entry): as above

inhibition of calcium-flux mediating activity of the channel ([1]; TrpV1 expressed in bacterial cells, FIG. 5) | inhibition of calcium-flux mediating activity of the channel [2] | potency (IC50) in bacterial cells compared with CHO cells ([1]; bacterial cells vs CHO cells, FIG. 8) | inhibition of TrpV1 mediated calcium flux ([1]; bacterial cells, FIG. 8) | calculated Hill slope values, CHO cells vs bacterial cells ([1]; comparison between the CHO cells and the bacterial cells, FIG. 8) | inhibition of TrpV1 mediated calcium flux (rat TrpV1) | Compound
inhibited in a dose dependent fashion | inhibited in a dose dependent fashion | – | – | – | – | [La] [lanthanum]
– | – | somewhat less potent | inhibits | not significantly different | inhibits | N.N.N.N.N.N.N.N.N.N.N.N.N.N.[Cl-].[Cl-].[Cl-].[Cl-].[Cl-].[Cl-].[O-2].[O-2].[Ru+3].[Ru+3].[Ru+4] [ruthenium red]
